# Source: patent US20140154730A1, “METHOD FOR STABILIZATION OF FLUID BIOLOGICAL SAMPLES” (DENATOR AB, priority 2011, published 2014)
# Key:
# [1] = Stabilization of oseltamivir in mouse blood spotted on Whatman FTA DMPK-C card; type: in vitro ADME; details: mouse blood spiked 500 ng/mL; for % oseltamivir metabolized: 25 μL spot on Whatman FTA DMPK-C card
# Description: Oseltamivir is an oral prodrug of oseltamivir carboxylate, a selective inhibitor of viral neuramidase glycoprotein in influenza A. Oseltamivir undergoes fast bioconversion to oseltamivir carboxylate mostly by carboxylesterase 1 (CES 1).
# Mouse blood was spiked with oseltamivir, 500 ng/mL. 25 μL, blood was spotted on Whatman FTA DMPK-C card. Spot were left to dry at room temperature, or heat treated using a Stabilizor™ System (Denator A B, Göteborg, Sweden) then left to dry.
# [2] = Effect of different drying conditions on oseltamivir metabolism in spotted mouse blood; type: in vitro ADME; details: mouse blood spiked 2000 ng/mL, 25 μL spot on Whatman FTA DMPK-C card
# Description: (§1) FIG. 2 is a graph showing the amount of metabolized Oseltamivir in samples following different treatments. Samples A were treated according to standard procedures according to manufacturer's instructions, i.e. dried in open air for 2 hrs. Samples B were dried in closed bags with silica. Samples C were heat stabilized and subsequently dried in open air. Samples D were heat stabilized and subsequently dried in closed bags with silica. Values in FIG. 2 showing % oseltamivir metabolized are mean of three samples
# as §1, with “Mouse blood was spiked with oseltamivir, 2000 ng/mL. 25 μL, blood was spotted on Whatman FTA DMPK-C card. Spots were allowed to dry under” for “FIG. 2 is a graph showing the amount of metabolized Oseltamivir in samples following”, “conditions, with our without prior heat stabilization.” for “treatments.”, “samples.” for “samples”
smiles,measurement,setting,value
CCOC(=O)C1=C[C@@H](OC(CC)CC)[C@H](NC(C)=O)[C@@H](N)C1 [oseltamivir],% oseltamivir metabolized,[1]; treatment: Drying at room temperature only,27%
same,% oseltamivir metabolized,[1]; treatment: Heating (Stabilizor System) then left to dry,3%
same,"metabolism of the prodrug, heat treatment compared to only passive drying","[1]; sample on paper, heat treated",strongly reduced the metabolism
same,"amount of metabolized oseltamivir, not heat stabilized, dried in closed bags with silica (Samples B)",[2]; compared to drying in open air,even higher amount of metabolized oseltamivir
same,"amount of metabolized oseltamivir, heat stabilized, dried in closed bags with silica (Samples D)",[2]; compared to drying in open air (Samples C),does not affect the amount of metabolized oseltamivir
same,"amount of metabolized oseltamivir, heat stabilized samples (C, D) versus not heat stabilized",[2]; mean of three samples,significant lower amount of metabolized oseltamivir
